# Organism: Rattus norvegicus
# Test: Open TG-GATES - Regimen: Single
# Assay type: toxicity, organism-based, Sprague-Dawley
# Parameters: regimen Single, gender Male, age 6 weeks
# Details: in vivo, po, 0 mg/kg, route gavage, dose level Control; for APTT / Bas / Eos / Fbg / Ht / Lym / MCH / MCHC / MCV / Mono / Neu / PT / Plat / RBC / Ret / WBC: tissue Blood; for KIDNEY_L / KIDNEY_R / KIDNEY_TOTAL: tissue Kidney; for LIVER: tissue Liver; for ALP / ALT / AST / BUN / CRE / Ca / Cl / DBIL / GLC / IP / K / LDH / Na / PL / RALB / TBIL / TC / TG / TP / gamma-GTP: tissue Plasma
smiles,measurement,setting,value
Cc1cccc(Nc2cc(Cl)nc(SCC(=O)O)n2)c1C [PIRINIXIC ACID],TERMINAL_BW,3 h,202.9 g
same,APTT,3 h,15.1 s
same,Bas,3 h,0%
same,Eos,3 h,0.4%
same,Fbg,3 h,280 mg/dL
same,Ht,3 h,40.2%
same,Lym,3 h,77.6%
same,MCH,3 h,21.5 pg
same,MCHC,3 h,33.9%
same,MCV,3 h,63.3 fL
same,Mono,3 h,2.6%
same,Neu,3 h,18%
same,PT,3 h,12.3 s
same,Plat,3 h,115.3 x10_4/uL
same,RBC,3 h,636.6 x10_4/ul
same,Ret,3 h,7.4%
same,WBC,3 h,78.3 x10_2/uL
same,KIDNEY_L,3 h,0.9 g
same,KIDNEY_R,3 h,0.8 g
same,KIDNEY_TOTAL,3 h,1.7 g
same,LIVER,3 h,8.6 g
same,ALP,3 h,1509.2 IU/L
same,ALT,3 h,48.6 IU/L
same,AST,3 h,77.6 IU/L
same,BUN,3 h,11 mg/dL
same,CRE,3 h,0.2 mg/dL
same,Ca,3 h,10.9 mg/dL
same,Cl,3 h,104.8 meq/L
same,DBIL,3 h,0.036 mg/dL
same,GLC,3 h,183.6 mg/dL
same,IP,3 h,10.5 mg/dL
same,K,3 h,3.8 meq/L
same,LDH,3 h,91.6 IU/L
same,Na,3 h,140 meq/L
same,PL,3 h,166.4 mg/dL
same,RALB,3 h,2.6 g/dL
same,TBIL,3 h,0.046 mg/dL
same,TC,3 h,82.8 mg/dL
same,TG,3 h,121 mg/dL
same,TP,3 h,5.6 g/dL
same,gamma-GTP,3 h,1.2 IU/L
same,TERMINAL_BW,6 h,201.9 g
same,APTT,6 h,17.1 s
same,Bas,6 h,0%
same,Eos,6 h,0.6%
same,Fbg,6 h,283.8 mg/dL
same,Ht,6 h,40.4%
same,Lym,6 h,73.4%
same,MCH,6 h,22 pg
same,MCHC,6 h,34.3%
same,MCV,6 h,64 fL
same,Mono,6 h,2.2%
same,Neu,6 h,22.8%
same,PT,6 h,12.2 s
same,Plat,6 h,115 x10_4/uL
same,RBC,6 h,630.8 x10_4/ul
same,Ret,6 h,7.6%
same,WBC,6 h,95.9 x10_2/uL
same,KIDNEY_L,6 h,0.8 g
same,KIDNEY_R,6 h,0.8 g
same,KIDNEY_TOTAL,6 h,1.7 g
same,LIVER,6 h,8 g
same,ALP,6 h,1969 IU/L
same,ALT,6 h,37.8 IU/L
same,AST,6 h,74.4 IU/L
same,BUN,6 h,10.2 mg/dL
same,CRE,6 h,0.2 mg/dL
same,Ca,6 h,10.7 mg/dL
same,Cl,6 h,106.2 meq/L
same,DBIL,6 h,0.026 mg/dL
same,GLC,6 h,185.8 mg/dL
same,IP,6 h,10.3 mg/dL
same,K,6 h,4.1 meq/L
same,LDH,6 h,69.2 IU/L
same,Na,6 h,139.8 meq/L
same,PL,6 h,145 mg/dL
same,RALB,6 h,2.5 g/dL
same,TBIL,6 h,0.046 mg/dL
same,TC,6 h,75.8 mg/dL
same,TG,6 h,78 mg/dL
same,TP,6 h,5.4 g/dL
same,gamma-GTP,6 h,1.2 IU/L
same,TERMINAL_BW,9 h,205.2 g
same,APTT,9 h,15.9 s
same,Bas,9 h,0%
same,Eos,9 h,0.8%
same,Fbg,9 h,268 mg/dL
same,Ht,9 h,39.5%
same,Lym,9 h,74.6%
same,MCH,9 h,21.3 pg
same,MCHC,9 h,34.1%
same,MCV,9 h,62.4 fL
same,Mono,9 h,2.6%
same,Neu,9 h,21.6%
same,PT,9 h,12.4 s
same,Plat,9 h,117.6 x10_4/uL
same,RBC,9 h,632.8 x10_4/ul
same,Ret,9 h,7.6%
same,WBC,9 h,69.1 x10_2/uL
same,KIDNEY_L,9 h,0.9 g
same,KIDNEY_R,9 h,0.9 g
same,KIDNEY_TOTAL,9 h,1.7 g
same,LIVER,9 h,7.9 g
same,ALP,9 h,1428 IU/L
same,ALT,9 h,34.8 IU/L
same,AST,9 h,67.4 IU/L
same,BUN,9 h,10.6 mg/dL
same,CRE,9 h,0.2 mg/dL
same,Ca,9 h,10.6 mg/dL
same,Cl,9 h,103.6 meq/L
same,DBIL,9 h,0.02 mg/dL
same,GLC,9 h,189 mg/dL
same,IP,9 h,10.7 mg/dL
same,K,9 h,3.6 meq/L
same,LDH,9 h,52.8 IU/L
same,Na,9 h,140.8 meq/L
same,PL,9 h,146 mg/dL
same,RALB,9 h,2.5 g/dL
same,TBIL,9 h,0.038 mg/dL
same,TC,9 h,80.2 mg/dL
same,TG,9 h,53.6 mg/dL
same,TP,9 h,5.2 g/dL
same,gamma-GTP,9 h,1 IU/L
same,TERMINAL_BW,24 h,212.4 g
same,APTT,24 h,16.5 s
same,Bas,24 h,0%
same,Eos,24 h,1%
same,Fbg,24 h,285.8 mg/dL
same,Ht,24 h,38.8%
same,Lym,24 h,73.8%
same,MCH,24 h,21.6 pg
same,MCHC,24 h,34.2%
same,MCV,24 h,63.2 fL
same,Mono,24 h,3%
same,Neu,24 h,21.8%
same,PT,24 h,12.2 s
same,Plat,24 h,112.5 x10_4/uL
same,RBC,24 h,614 x10_4/ul
same,Ret,24 h,7.3%
same,WBC,24 h,80.5 x10_2/uL
same,KIDNEY_L,24 h,0.9 g
same,KIDNEY_R,24 h,0.9 g
same,KIDNEY_TOTAL,24 h,1.9 g
same,LIVER,24 h,9.7 g
same,ALP,24 h,1823.2 IU/L
same,ALT,24 h,42.8 IU/L
same,AST,24 h,71.4 IU/L
same,BUN,24 h,14.8 mg/dL
same,CRE,24 h,0.2 mg/dL
same,Ca,24 h,11 mg/dL
same,Cl,24 h,104.6 meq/L
same,DBIL,24 h,0.02 mg/dL
same,GLC,24 h,179.8 mg/dL
same,IP,24 h,8.4 mg/dL
same,K,24 h,4 meq/L
same,LDH,24 h,61 IU/L
same,Na,24 h,142.6 meq/L
same,PL,24 h,147 mg/dL
same,RALB,24 h,2.6 g/dL
same,TBIL,24 h,0.032 mg/dL
same,TC,24 h,79.8 mg/dL
same,TG,24 h,71.6 mg/dL
same,TP,24 h,5.5 g/dL

# Source: ChEMBL document CHEMBL3885861, “Open TG-GATES”
